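Values below derive from 48-hour exposures of cells grown in 96-well plates, with endpoints linearly interpolated between the two concentrations bracketing the appropriate inhibition level. GI50 = concentration required for 50% inhibition of growth. TGI: total growth inhibition.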 Some results are limits rather than exact numbers.

This is an account of results in PubChem BioAssay (NCI).

Test systems include NCI-H226 lung; TK-10 renal; HT29 colon; NCI-H522 lung; HOP-62 NSCLC; KM12 colon; SK-MEL-2 melanoma; COLO 205 colon; OVCAR-4 ovarian; M14 melanoma.
Holding throughout (experiment): DTP human tumour cell line panel, 48 h

By GI50 is commonly meant the concentration at which growth is held to half of that of the control. The term TGI denotes the concentration at which net growth stops. High values mean lower sensitivity of the cells, low ones greater sensitivity of the cells. Consider `CCOC(=O)Nc1ccc2c3c(cccc13)-c1ccccc1-2`, for which the GI50 was above 100 µM in the experiment with NCI-H226 lung; above 100 µM with TK-10 renal; 3.67 µM in the experiment with HT29 colon; above 100 µM in the experiment on NCI-H522 lung; 5.27 µM with HOP-62 NSCLC; 2.32 µM in the experiment with KM12 colon. In addition, the GI50 with SK-MEL-2 melanoma is above 100 µM; with COLO 205 colon, 4.25 µM; with OVCAR-4 ovarian, above 100 µM; in the experiment with M14 melanoma, 4.32 µM. In addition, the TGI in the experiment with NCI-H226 lung, in the experiment with TK-10 renal, in the experiment on HT29 colon, with NCI-H522 lung, in the experiment on HOP-62 NSCLC and in the experiment with KM12 colon was above 100 µM each time. Moreover, the TGI with SK-MEL-2 melanoma, in the experiment with COLO 205 colon, with OVCAR-4 ovarian and with M14 melanoma was above 100 µM in each case.
As to `CN(CCNc1ccc(C(=N)N)cc1)c1ccc(C(=N)N)cc1`, the GI50 was 3.81 µM in the experiment on NCI-H226 lung; 53.4 µM with TK-10 renal; 80.8 µM in the experiment with HT29 colon; 27.5 µM in the experiment on NCI-H522 lung; 50 µM with HOP-62 NSCLC; 38.3 µM with KM12 colon. Moreover, the GI50 is 18 µM in the experiment with SK-MEL-2 melanoma, 17 µM in the experiment on COLO 205 colon, 66 µM in the experiment with OVCAR-4 ovarian and 57 µM in the experiment with M14 melanoma. Also, the TGI in the experiment on NCI-H226 lung, in the experiment on TK-10 renal, with HT29 colon, in the experiment with NCI-H522 lung, in the experiment on HOP-62 NSCLC and in the experiment with KM12 colon was above 100 µM in each case. Moreover, the TGI was above 100 µM in the experiment on SK-MEL-2 melanoma, 41.1 µM in the experiment with COLO 205 colon, above 100 µM in the experiment on OVCAR-4 ovarian and above 100 µM with M14 melanoma.
